The values that follow come from patent US20070212339A1, “Use Of At Least One Effector Of Glutathione Metabolism Together With Alpha-Lipoic Acid For The Treatment Of Chronically Obstructive Lung Diseases” (ESPARMA GMBH, priority 2003, published 2007).

The structures appear in SMILES notation.

The test system of assay [1] is primary alveolar macrophages of COPD patients. The assay is described as follows: Cellular thiol status (CMFDA) of primary alveolar macrophages of COPD patients. Type of assay: cell-based, human. The note with it: for Thiols, intracellular (CMFDA)[%]: RPMI1640. On the procedure:
The intercellular thiol content at the individual cell level was determined using 5-chloromethylfluorescein diacetate (CMFDA) in flow cytofluorimetry [Cytometry 1994; 15:349-358, Cytometry 1997; 29:76-82]. CMFDA which is primarily non-fluorogenic is here passively absorbed by the cell. Via the chloromethyl residue there is binding to cytoplasmatic thiol groups. After the acetate residues have been split off by unspecific cellular esterases, this complex which is now cell membrane-impermeable becomes fluorogenic at an excitation wavelength of λex=490 nm with an emission wavelength of λem=520 nm. The mean fluorescence intensity of the sample (10,000 cells) is directly proportional to the concentration of the intracellular thiol groups. Alveolar macrophages were isolated from the bronchoalveolar lavage fluid of COPD patients, taken up in cell culture medium and incubated in a gassing incubator at 37° C., a relative air humidity of 98% and a relative air-CO2 content of 7.5%. In order to check the influence of the combinations used according to the invention on the thiol status of the […] macrophages, in each case one fraction was treated with α-lipoic acid, the effector of glutathione metabolism ambroxol or with the combination of α-lipoic acid/ambroxol, whilst another fraction was used in each case as an untreated control. Untreated alveolar macrophages from healthy, non-COPD patients served as the normal comparison. The cellular thiol status was determined by means of the measuring method described under 1. The effect of the combination of α-lipoic acid and ambroxol in time kinetics over 96 hours in relation to healthy cells is shown in Table 5. In a test assembly identical to that of Example 3, alveolar macrophages from COPD patients were in each case treated with α-lipoic acid, the effector silibinin or with the combination of α-lipoic acid/silibinin, whilst another fraction was again used in each case as an untreated control. Untreated alveolar macrophages from healthy, non-COPD patients served here, too, as the normal comparison. The cellular thiol status was determined by means of the measuring method described under 1. The effect of the combination of α-lipoic acid and silibinin in time kinetics over 96 hours in relation to healthy cells is shown in Table 6.

Assay [2] shares this test system. The assay is described as follows: Phagocytosis rate of primary alveolar macrophages of COPD patients (cytofluorimetric test with opsonized fluorochrome-marked bacteria). Type of assay: cell-based, human. The conditions noted are these: for Phagoburst (mfi) [%]: RPMI1640; for phagocytosis rate: monosubstances, by comparison with the untreated control. On the procedure:
In a similar procedure to the one described in Example 3, alveolar macrophages were isolated and cultivated ex vivo. The phagocytosis efficiency was determined by a cytofluorimetric test at the single-cell level. The macrophages were co-cultivated with opsonized and fluorochrome-marked bacteria. The amount of bacteria absorbed in a defined period of time was assessed quantitatively via the fluorescence intensity in the macrophages and counted as the measurement for their capacity for phagocytosis. The influence of the combinations used according to the invention on the capacity of the […] macrophages for phagocytosis after a treatment period of up to 96 hours is shown in Table 7.

Assay [3] concerns alveolar macrophage cell line CRL 21-92 (NR8383). The assay is described as follows: Intracellular thiol content (CMFDA, flow cytofluorimetry) of artificially thiol-depleted alveolar macrophage cell line. The note with it: αLA 10.0 μg/ml alone, TDM. Type of assay: cell-based. The procedure: (§1) The established normal alveolar macrophage cell line CRL 21-92 (NR8383 [AgC11x3A; NR8383.1]) was used. The cells were taken up in special cell culture media and incubated in a gassing incubator at 37° C., a relative air humidity of 98% and a relative air-CO2 content of 5%. In order to check the influence of the combinations used according to the invention on the thiol status of thiol-deficient alveolar macrophages, these were artificially thiol-depleted. This came about by cultivation in thiol-deficient media (TDM) according to tested methods [Free Radic Biol Med 2000; 29:1160-1165]. Comparative cultures using complete media (RPMT 1640) were used for defining the best possible normal value under culture conditions. The intercellular thiol content at the individual cell level was determined using 5-chloromethylfluorescein diacetate (CMFDA) in flow cytofluorimetry [Cytometry 1994; 15:349-358, Cytometry 1997; 29:76-82]. CMFDA which is primarily non-fluorogenic is here passively absorbed by the cell. Via the chloromethyl residue there is binding to cytoplasmatic thiol groups. After the acetate residues have been split off by unspecific cellular esterases, this complex which is now cell membrane-impermeable becomes fluorogenic at an excitation wavelength of λex=490 nm with an emission wavelength of λem=520 nm. The mean fluorescence intensity of the sample (10,000 cells) is directly proportional to the concentration of the intracellular thiol groups. The expression of membrane-bound thiol groups was also determined by means of flow cytofluorimetry. Chloromethyl tetramethyl rhodamine (CMTMR) was used as the thiol conjugate under conditions of a blocked membrane potential and an inhibited diffusion capacity of the cells, [Exp Hematol 1997; 25(7): 601-607]. The fluorescence intensity of the bound fluorochrome molecules on the cell membrane is here again proportional to the quantity of thiol groups on the cell surface. Immortalised alveolar macrophages were artificially thiol-depleted in the above-described test assembly. The influence of the substances used according to the invention was checked over a period of 96 hours by measuring the intracellular thiol content and the membrane expression of thiols. Immortalised alveolar macrophages were artificially thiol-depleted in the test assembly described in Example 1. The influence of the substances used according to the invention was checked over a period of 96 hours by measuring the intracellular thiol content and the membrane expression of thiols.

For assay [4] the test system is unchanged. The assay is described as follows: Membrane-bound thiol expression (CMTMR, flow cytofluorimetry) of artificially thiol-depleted alveolar macrophage cell line. Type of assay: cell-based. The note with it: αLA 10.0 μg/ml alone, TDM. The procedure:
as §1, with “conditions.” for “conditions. The intercellular thiol content at the individual cell level was determined using 5-chloromethylfluorescein diacetate (CMFDA) in flow cytofluorimetry [Cytometry 1994; 15:349-358, Cytometry 1997; 29:76-82]. CMFDA which is primarily non-fluorogenic is here passively absorbed by the cell. Via the chloromethyl residue there is binding to cytoplasmatic thiol groups. After the acetate residues have been split off by unspecific cellular esterases, this complex which is now cell membrane-impermeable becomes fluorogenic at an excitation wavelength of λex=490 nm with an emission wavelength of λem=520 nm. The mean fluorescence intensity of the sample (10,000 cells) is directly proportional to the concentration of the intracellular thiol groups.”

On to `Nc1c(Br)cc(Br)cc1CN[C@H]1CC[C@H](O)CC1` [Ambroxol, ambroxol], for which the “Thiols, intracellular (CMFDA)[%]” value in assay [1] (24 h, Ambroxol [10.0 μ/ml] alone) is listed as 67.4 ± 16.4%; in assay [1] (48 h, Ambroxol [10.0 μ/ml] alone), 61.8 ± 11.5%; in assay [1] (72 h, Ambroxol [10.0 μ/ml] alone), 61.6 ± 20.8%; in assay [1] (96 h, Ambroxol [10.0 μ/ml] alone) it was 67.1 ± 8.4%. Also, the cellular thiol expression result in assay [1] (Example 3, monosubstances) was “only a marginal rise”. Moreover, the “Phagoburst (mfi) [%]” value amounted to 53.3 ± 10.9% in assay [2] (24 h, Ambroxol 10 μM alone); 59.2 ± 12.4% in assay [2] (48 h, Ambroxol 10 μM alone); 55.2 ± 19.2% in assay [2] (72 h, Ambroxol 10 μM alone); 61.9 ± 22.1% in assay [2] (96 h, Ambroxol 10 μM alone). In addition, the phagocytosis rate entry in assay [2] is “had not altered”.
As to `COc1cc(C2Oc3cc([C@H]4Oc5cc(O)cc(O)c5C(=O)[C@@H]4O)ccc3OC2CO)ccc1O` (stereo partly shown) [Silibinin, silibinin], the “Thiols, intracellular (CMFDA)[%]” value in assay [1] (24 h, Silibinin 70 μg/ml alone) came out at 56.1 ± 12.4%; in assay [1] (48 h, Silibinin 70 μg/ml alone), 59.0 ± 56.8%; in assay [1] (72 h, Silibinin 70 μg/ml alone), 44.7 ± 14.0%; in assay [1] (96 h, Silibinin 70 μg/ml alone), 49.4 ± 14.5%. Further, the “Phagoburst (mfi) [%]” value in assay [2] (24 h, Silibinin 70.0 μg/ml alone) was 55.1 ± 12.2 %; in assay [2] (48 h, Silibinin 70.0 μg/ml alone), 57.6 ± 8.5%; in assay [2] (72 h, Silibinin 70.0 μg/ml alone), 54.2 ± 13.8%; in assay [2] (96 h, Silibinin 70.0 μg/ml alone), 59.9 ± 21.2%.
Consider `O=C(O)CCCCC1CCSS1` (stereo not drawn) [αLA, α-lipoic acid], for which the “Thiols, intracellular (CMFDA)[%]” value amounted to 70.2 ± 8.4% in assay [3] (Table 1, 24 h); 58.9 ± 10.4% in assay [3] (Table 1, 48 h); 78.1 ± 30.0% in assay [3] (Table 1, 72 h); 72.5 ± 19.1% in assay [3] (Table 1, 96 h); 69.2 ± 28.2% in assay [3] (Table 3, 24 h); 91.1 ± 16.6% in assay [3] (Table 3, 48 h). Besides, the “Thiols, intracellular (CMFDA)[%]” value in assay [3] (Table 3, 72 h) is reported as 88.6 ± 26.2%; in assay [3] (Table 3, 96 h) it was 114.8 ± 33.2%; in assay [1] (Table 5, 24 h, αLA 10.0 μg/ml alone), 60.3 ± 21.0%; in assay [1] (Table 5, 48 h, αLA 10.0 μg/ml alone), 58.0 ± 17.0%; in assay [1] (Table 5, 72 h, αLA 10.0 μg/ml alone), 46.2 ± 19.8%; in assay [1] (Table 5, 96 h, αLA 10.0 μg/ml alone), 62.4 ± 6.3%. In addition, the “Thiols, intracellular (CMFDA)[%]” value in assay [1] (Table 6, 24 h, αLA 10.0 μg/ml alone) was 60.3 ± 21.0%; in assay [1] (Table 6, 48 h, αLA 10.0 μg/ml alone) it was 58.0 ± 68.6%; in assay [1] (Table 6, 72 h, αLA 10.0 μg/ml alone), 46.2 ± 19.8%; in assay [1] (Table 6, 96 h, αLA 10.0 μg/ml alone), 62.4 ± 6.3%. The “Thiols, in membrane (CMTMR)[%]” value in assay [4] (Table 2, 24 h) came out at 91.1 ± 66.3%; in assay [4] (Table 2, 48 h), 165.5 ± 36.3%; in assay [4] (Table 2, 72 h), 82.3 ± 42.1%; in assay [4] (Table 2, 96 h), 118.9 ± 76.6%; in assay [4] (Table 4, 24 h), 108.8 ± 38.2%; in assay [4] (Table 4, 48 h), 126.2 ± 68.6%. Also, the “Thiols, in membrane (CMTMR)[%]” value in assay [4] (Table 4, 72 h) is 90.7 ± 28.1%; in assay [4] (Table 4, 96 h) it was 107.3 ± 57.4%. The cellular thiol expression result in assay [1] (Example 3, monosubstances) is reported as “no effect”; in assay [1] (Example 4, monosubstances), “no modulation”. In addition, the “Phagoburst (mfi) [%]” value in assay [2] (24 h, αLA 10.0 μg/ml alone) was determined as 59.0 ± 11.7%; in assay [2] (48 h, αLA 10.0 μg/ml alone) it was 60.2 ± 12.4%; in assay [2] (72 h, αLA 10.0 μg/ml alone) it was 50.7 ± 9.0%; in assay [2] (96 h, αLA 10.0 μg/ml alone) it was 64.9 ± 14.3%. Moreover, in assay [2], the phagocytosis rate result is “had not altered”.
